# Measurements reported in patent publication US20060183922A1, “CB2-selective cannabinoid derivatives” (priority 2005, published 2006).
# “Also recorded” adds a separate entry of the source.
# Experiments:
# [1] = target: T1, human CB2 receptor (transfected human embryonic kidney 293 cells) (Homo sapiens, UniProt P34972); test: CB2 receptor binding assay, [3H]CP-55,940 displacement; settings: for Fold selectivity for CB2 over CB1: ratio of CB1 to CB2 affinity
# T1 construct: expressed in transfected cells
# T1 sequence (P34972 whole entry): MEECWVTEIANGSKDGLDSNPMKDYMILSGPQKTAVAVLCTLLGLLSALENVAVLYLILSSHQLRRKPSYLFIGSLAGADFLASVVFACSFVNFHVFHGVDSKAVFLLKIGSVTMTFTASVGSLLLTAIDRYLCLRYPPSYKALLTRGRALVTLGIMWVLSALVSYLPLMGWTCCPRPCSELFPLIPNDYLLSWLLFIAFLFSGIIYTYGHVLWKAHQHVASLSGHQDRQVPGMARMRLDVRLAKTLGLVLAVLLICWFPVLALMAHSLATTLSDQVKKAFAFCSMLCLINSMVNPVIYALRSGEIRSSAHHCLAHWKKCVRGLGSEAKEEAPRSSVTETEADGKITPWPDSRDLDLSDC
# Experimental: 2. CB2 Assay. Human embryonic kidney 293 cells were maintained in Dulbecco's modified Eagle's medium (DMEM) with 10% fetal clone II (HyClone, Logan Utah) and 5% CO2 at 37° C. in a Forma incubator. Cell lines were created by transfection of CB2pcDNA3 into 293 cells by the Lipofectamine reagent (Life Technologies, Gaithersburg, Md.). The human CB2 cDNA was a gift. Stable transformants were selected in growth medium containing geneticin (1 mg/mL, reagent, Life Technologies, Gaithersburg, Md.). Colonies of about 500 cells were picked (about 2 weeks post transfection) and allowed to expand, then tested for expression of receptor mRNA by northern blot analysis. Cell lines containing moderate to high levels of receptor mRNA were tested for receptor binding properties. Transfected cell lines were maintained in DMEM with 10% fetal clone II plus 0.3-0.5 mg/mL geneticin and 5% CO2 at 37° C. in a Forma incubator.
# The current assay is a modification of Compton et al. (Compton, D. R.; Rice, K. C.; De Costa, B. R.; Razdan, R. K.; Melvin, L. S.; Johnson, M. R.; Martin, B. R. J. Pharmacol Exp. Ther. 1993, 265, 218.) Cells were harvested in phosphate-buffered saline containing 1 mM EDTA and centrifuged at 500 g. The cell pellet was homogenized in 10 mL of solution A (50 mM Tris-HCl, 320 mM sucrose, 2 mM EDTA, 5 mM MgCl2, pH 7.4). The homogenate was centrifuged at 1,600×g (10 min), the supernatant saved, and the pellet washed three times in solution A with subsequent centrifugation. The combined supernatants were centrifuged at 100,000×g (60 min). The (P2 membrane) pellet was resuspended in 3 mL of buffer B (50 mM Tris-HCl, 1 mM EDTA, 3 mM MgCl2, pH 7.4) to yield a protein concentration of approximately 1 mg/mL. The tissue preparation was divided into equal aliquots, frozen on dry ice, and stored at −70° C. Binding was initiated by the addition of 40-50 μg membrane protein to silanized tubes containing [^3H]CP-55,940 (102.9 Ci/mmol) and a sufficient volume of buffer C (50 mM Tris-HCl, 1 mM EDTA, 3 mM MgCl2, and 5 mg/mL fatty acid free BSA, pH 7.4) to bring the total volume to 0.5 mL. The addition of 1 μM unlabelled CP-55,940 was used to assess nonspecific binding. Following incubation (30° C. for 1 hour), binding was terminated by the addition of 2 mL of ice cold buffer D (50 mM Tris-HCl, pH 7.4, plus 1 mg/mL BSA) and rapid vacuum filtration through Whatman GF/C filters (pretreated with polyethyleneimine (0.1%) for at least 2 hours). Tubes were rinsed with 2 mL of ice cold buffer D, which was also filtered, and the filters subsequently rinsed twice with 4 mL of ice cold buffer D. Before radioactivity was quantitated by liquid scintillation spectrometry, filters were shaken for 1 hr in 5 mL of scintillation fluid.
# (§1) CP-55,940 and all cannabinoid analogs were prepared by suspension in assay buffer from a 1 mg/mL ethanolic stock without evaporation of the ethanol (final concentration of no more than 0.4%). Competition assays were conducted with 1 nM [^3H]-CP55,940 and 6 concentrations (0.1 nM to 10 μM displacing ligands). Displacement IC50 values were originally determined by unweighted least-squares linear regression of log concentration-percent displacement data and then converted to Ki values using the method of Cheng and Prusoff(Cheng, Y. C.; Prusoff, W. H. Biochem. Pharmacol. 1973, 22, 3099.)
# CB1 receptor = target: T2, CB1 receptor (Rattus norvegicus, UniProt P20272); test: CB1 receptor binding assay, [3H]CP-55,940 displacement, whole brain P2 membranes
# T2 construct: except whole brain (rather than cortex only) was used; from tissue; host or cells: whole brain P2 membranes
# T2 sequence (P20272 whole entry): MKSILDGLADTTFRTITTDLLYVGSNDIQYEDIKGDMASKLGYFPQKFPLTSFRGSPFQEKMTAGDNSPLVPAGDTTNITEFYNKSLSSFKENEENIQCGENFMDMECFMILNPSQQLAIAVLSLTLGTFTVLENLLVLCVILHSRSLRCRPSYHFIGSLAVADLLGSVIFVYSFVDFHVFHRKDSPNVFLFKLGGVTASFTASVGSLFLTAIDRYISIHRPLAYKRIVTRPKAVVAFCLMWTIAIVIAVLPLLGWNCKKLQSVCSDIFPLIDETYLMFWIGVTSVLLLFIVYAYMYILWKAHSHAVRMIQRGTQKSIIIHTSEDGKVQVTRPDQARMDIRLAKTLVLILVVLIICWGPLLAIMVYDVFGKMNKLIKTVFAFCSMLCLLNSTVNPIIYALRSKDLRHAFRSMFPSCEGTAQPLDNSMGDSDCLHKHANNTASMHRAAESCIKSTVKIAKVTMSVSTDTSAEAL
# Experimental: 1. CB1 Assay. [^3H] […] Displacement curves were generated by incubating drugs with 1 nM of [^3H] CP-55,940. The assays were performed in triplicate, and the results represent the combined data from three individual experiments.
# as §1, with “Competition assays were conducted with 1 nM [^3H]-CP55,940 and 6 concentrations (0.1 nM to 10 μM displacing ligands).” left out
# CB2 receptor = CB2 receptor (Homo sapiens, UniProt P34972); settings: read-out: Ki for the CB2 receptor; Huffman et al., Biorg. Med. Chem. 1999; cited from earlier work
# Sequence of CB2 receptor (P34972 whole entry): as the sequence (P34972 whole entry) above
# [2] = test system: formalin model of inflammatory pain; test: Formalin model of inflammatory pain; format: in vivo; settings: male ICR mice
# Experimental: One of the above CB2 selective agonists was chosen for testing in the formalin model of inflammatory pain in mice. Subjects consisted of male ICR mice (Harlan Labs) weighing between 20-25 g. The formalin test was carried out in an open Plexiglas cage, with a mirror placed under the floor to allow an unobstructed view of the paws. Mice were allowed to acclimate for 15 min in the test cage before formalin injection. Each animal was injected with 20 μl of 2.5% formalin in the intraplantar region of the right hindpaw. Mice were then observed 0-5 min (Phase 1) and 20-45 min (Phase 2) post-formalin, and the amount of time spent licking the injected paw was recorded. The drug was injected i.p. 30 min before formalin injection.
SMILES,Ki [1],Fold selectivity for CB2 over CB1 [1],Ki (CB1 receptor),Ki (CB2 receptor),"pain response (time spent licking injected paw) ([2]; 20 mg/kg i.p. 30 min before formalin, listed as JWH-350)","nociception, dose dependence ([2]; i.p. 30 min before formalin)"
"CC[C@H](C)Cc1ccc2c(c1)OC(C)(C)[C@@H]1CC=C(C)C[C@@H]21 [Compound 352, 1-Deoxy-3-(2′S-methylbutyl)-Δ^8-tetrahydrocannabinol]",46.5 ± 2.16 nM,213 fold,> 10000 nM,–,–,–
"CC[C@@H](C)Cc1ccc2c(c1)OC(C)(C)[C@@H]1CC=C(C)C[C@@H]21 [Compound 353, 1-Deoxy-3-(2′R-methylbutyl)-Δ^8-tetrahydrocannabinol]",31.3 ± 0.78 nM,48 fold,1493 ± 10 nM,–,–,–
"CCCC(C)(C)c1ccc2c(c1)OC(C)(C)[C@@H]1CC[C@@H](O)C[C@@H]21 [Compound 310, 1-Deoxy-9β-hydroxy-3-(1′,1′dimethylbutyl)-11-nor-hexahydrocannabinol]",36.1 ± 2.8 nM,29 fold,1060 nM,–,–,–
"CCCCC(C)(C)c1cc(OC)c2c(c1)OC(C)(C)[C@@H]1CC[C@@H](O)C[C@@H]21 [Compound 299, 1-Deoxy-9β-hydroxy-1-methoxy-3-(1′,1′dimethylpentyl)-11-nor-hexahydrocannabinol]",29.8 ± 1.77 nM,14 fold,415 ± 49.8 nM,–,–,–
"CCC[C@H](C)Cc1ccc2c(c1)OC(C)(C)[C@@H]1CC=C(C)C[C@@H]21 [Compound 255, 1-Deoxy-3-(2′S-methylpentyl)-Δ^8-tetrahydrocannabinol]",24.3 ± 8.6 nM,174 fold,4310 ± 649 nM,–,–,–
"CCCCCC(C)(C)c1cc(OC)c2c(c1)OC(C)(C)[C@@H]1CC[C@H](O)C[C@@H]21 [Compound 349, 9α-Hydroxy-1-methoxy-3-(1′,1′dimethylhexyl)-11-nor-hexahydrocannabinol]",38 ± 4.3 nM,10 fold,375.7 ± 0.7 nM,–,–,–
CCCCCCC(C)(C)c1ccc2c(c1)OC(C)(C)C1CC=C(C)CC21 (stereo not drawn) [1-deoxy-Δ^8-THC-DMH],–,–,–,3 nM,–,–
"CCCCCC(C)(C)c1cc(OC)c2c(c1)OC(C)(C)[C@@H]1CC[C@@H](O)C[C@@H]21 [Compound 350, 9β-Hydroxy-1-methoxy-3-(1′,1′dimethylhexyl)-11-nor-hexahydrocannabinol]",11.8 ± 1.03 nM,33 fold,395 ± 19.8 nM,–,completely inhibited pain response; also recorded: completely eliminating the pain response,inhibits nociception in a dose-dependent manner
"CC[C@@H](C)Cc1cc(OC)c2c(c1)OC(C)(C)[C@@H]1CC=C(C)C[C@@H]21 [Compound 359, 1-Methoxy-3-(2′R-methylbutyl)-Δ^8-tetrahydrocannabinol]",13.3 ± 0.15 nM,219 fold,2920 ± 450 nM,–,–,–
